Laboratory results from the CheMixHub viscosity set.
Values joined by “and” are separate entries in the source; they are usually repeats but may differ in a detail not shown here. Equal entries are not always repeated. ± gives the uncertainty stated by the source.

Experiment: xn = mol fraction of the nth substance listed

CN(CCO)CCO + O
viscosity
Details | 293.15 K | 298.15 K | 303.15 K | 308.15 K | 313.15 K | 323.15 K
100 kPa, x1 = 0.131 | – | 9.324 ± 0.38 mPa·s | – | – | – | –
101 kPa, x1 = 0.06 | – | – | 2.548 ± 0.085 mPa·s | – | 1.906 ± 0.061 mPa·s | –
101 kPa, x1 = 0.1 | 7.325 ± 0.88 mPa·s | – | 4.901 ± 0.51 mPa·s | – | 3.458 ± 0.32 mPa·s | 2.551 ± 0.22 mPa·s
101 kPa, x1 = 0.11 | – | – | 5.312 ± 0.17 mPa·s | – | 3.729 ± 0.12 mPa·s | 2.777 ± 0.087 mPa·s
101 kPa, x1 = 0.1991 | 26.19 ± 1.9 mPa·s | – | 15.41 ± 1.1 mPa·s | – | 9.684 ± 0.66 mPa·s | 6.517 ± 0.43 mPa·s
101 kPa, x1 = 0.2985 | 56.54 ± 3.6 mPa·s | – | 31.07 ± 2 mPa·s | – | 18.14 ± 1.1 mPa·s | 11.42 ± 0.72 mPa·s
101 kPa, x1 = 0.3975 | 84.73 ± 5.2 mPa·s | – | 45.33 ± 2.8 mPa·s | – | 25.74 ± 1.6 mPa·s | 15.8 ± 0.97 mPa·s
101 kPa, x1 = 0.4963 | 103.2 ± 6.4 mPa·s | – | 54.91 ± 3.3 mPa·s | – | 31.5 ± 1.9 mPa·s | 18.96 ± 1.2 mPa·s
101 kPa, x1 = 0.5949 | 113.9 ± 7 mPa·s | – | 60.93 ± 3.7 mPa·s | – | – | 20.85 ± 1.3 mPa·s
101 kPa, x1 = 0.6934 | 115.5 ± 7.1 mPa·s | – | 62.48 ± 3.8 mPa·s | – | 35.73 ± 2.2 mPa·s | 21.72 ± 1.3 mPa·s
101 kPa, x1 = 0.7916 | 113.6 ± 7 mPa·s | – | 61.99 ± 3.8 mPa·s | – | 35.44 ± 2.1 mPa·s | 21.95 ± 1.3 mPa·s
101 kPa, x1 = 0.8896 | 109.8 ± 6.8 mPa·s | – | 59.49 ± 3.6 mPa·s | – | 35.12 ± 2.1 mPa·s | –
101 kPa, x2 = 0.815 | – | 17.44 ± 0.24 mPa·s | – | – | – | –
101 kPa, x2 = 0.9 | – | 9.66 ± 0.11 mPa·s | – | – | – | –
101 kPa, x2 = 0.91 | 6.35 ± 1.3 mPa·s | 5.4 ± 0.06 mPa·s and 5.25 ± 1.1 mPa·s | 4.34 ± 0.87 mPa·s | – | – | –
101 kPa, x2 = 0.9391 | – | 3.27 ± 0.03 mPa·s | – | – | – | –
101 kPa, x2 = 0.94 | 3.53 ± 0.71 mPa·s | 2.99 ± 0.6 mPa·s | 2.54 ± 0.51 mPa·s | – | 1.89 ± 0.38 mPa·s | 1.45 ± 0.29 mPa·s
101 kPa, x2 = 0.96 | 2.264 ± 0.45 mPa·s | 1.921 ± 0.38 mPa·s | 1.695 ± 0.34 mPa·s | – | 1.32 ± 0.26 mPa·s | –
101.3 kPa, x1 = 0.02 | 1.541 ± 0.25 mPa·s | 1.316 ± 0.25 mPa·s | – | – | 0.931 ± 0.24 mPa·s | 0.773 ± 0.24 mPa·s
101.3 kPa, x1 = 0.04 | 2.268 ± 0.26 mPa·s | 1.924 ± 0.25 mPa·s | 1.697 ± 0.25 mPa·s | – | 1.325 ± 0.24 mPa·s | 1.068 ± 0.24 mPa·s
101.3 kPa, x1 = 0.06 | 3.637 ± 0.29 mPa·s | 3.036 ± 0.26 mPa·s | 2.594 ± 0.25 mPa·s | – | – | –
101.3 kPa, x1 = 0.09 | 6.345 ± 0.37 mPa·s | 5.245 ± 0.3 mPa·s | 4.325 ± 0.28 mPa·s | – | 3.107 ± 0.26 mPa·s | 2.367 ± 0.25 mPa·s
101.3 kPa, x1 = 0.1 | 11.84 ± 0.64 mPa·s | 9.196 ± 0.41 mPa·s | 7.437 ± 0.34 mPa·s | – | 5.101 ± 0.29 mPa·s | 3.599 ± 0.27 mPa·s
101.3 kPa, x1 = 0.2 | 22.64 ± 0.98 mPa·s | 17.25 ± 0.72 mPa·s | – | – | 8.843 ± 0.39 mPa·s | 6.015 ± 0.31 mPa·s
101.3 kPa, x1 = 0.3 | 37.14 ± 2 mPa·s | 29.03 ± 1.1 mPa·s | 22.69 ± 0.82 mPa·s | – | 14.91 ± 0.57 mPa·s | 9.618 ± 0.42 mPa·s
101.3 kPa, x1 = 0.4 | 71.95 ± 3.1 mPa·s | 58.29 ± 2 mPa·s | 42.41 ± 1.6 mPa·s | – | 24.45 ± 1 mPa·s | 14.36 ± 0.59 mPa·s
101.3 kPa, x1 = 0.6 | 101.9 ± 7.8 mPa·s | 81.67 ± 5 mPa·s | 54.66 ± 1.9 mPa·s | – | 34.23 ± 1.4 mPa·s | 19.22 ± 0.8 mPa·s
101.33 kPa, x1 = 0.017 | – | – | 1.137 ± 0.01 mPa·s | – | 0.907 ± 0.008 mPa·s | –
101.33 kPa, x1 = 0.036 | 2.262 ± 0.022 mPa·s | 1.941 ± 0.019 mPa·s | 1.686 ± 0.016 mPa·s | – | – | 1.051 ± 0.01 mPa·s
101.33 kPa, x1 = 0.061 | 3.69 ± 0.042 mPa·s | 3.092 ± 0.035 mPa·s | – | – | – | –
101.33 kPa, x1 = 0.092 | 6.452 ± 0.085 mPa·s | 5.253 ± 0.07 mPa·s | 4.359 ± 0.057 mPa·s | 3.671 ± 0.048 mPa·s | 3.112 ± 0.041 mPa·s | 2.309 ± 0.03 mPa·s
101.33 kPa, x1 = 0.13 | 11.7 ± 0.18 mPa·s | 9.208 ± 0.14 mPa·s | 7.436 ± 0.11 mPa·s | 6.097 ± 0.092 mPa·s | – | 3.642 ± 0.055 mPa·s
